From patent publication US12594278B2, “Method for treatment of muscular dystrophy” (CHILDREN'S NATIONAL MEDICAL CENTER, priority 2019, dated 2026)

Assays:
B6A/J FAPs = experiment: Spontaneous adipogenesis of purified B6A/J FAPs treated with recombinant AnxA2 (Oil Red O); type: cell-based, mouse; settings: 100 nM AnxA2 from day 3; 24Mo B6A/J FAPs; vs AnxA2 untreated FAPs
Source text: The contribution of AnxA2 to the adipogenic fate of the FAPs was next examined in dysferlin-deficient muscle. For this FAPs were isolated from 12Mo WT, B6A/J and A2-B6A/J muscle and their spontaneous adipogenesis in vitro was quantified. […] The spontaneous adipogenesis of B6A/J FAPs indicates these cells are committed to adipogenesis prior to extraction, which can be caused by the pro-adipogenic niche in dysferlinopathic muscle. The lack of spontaneous adipogenesis in A2-B6A/J FAPs can be caused by the lack of a pro-adipogenic niche or restricted adipogenic potential of the FAPs in the absence of AnxA2 (FIG. 8). As adipogenic replacement of muscle is enhanced with age, the niche (PDGFRα^−) and FAP (PDGFRα^+) cells from 24Mo B6A/J and A2-B6A/J muscles were isolated to allow for the niche cells to reach their maximal potential. These FAP and niche cells were then mixed in a 1:1 ratio (20,000 cells total; 10,000 FAPs) from the same or different genetic background and their spontaneous adipogenesis was quantified as the extent of oil red staining/20,000 FAPs. […] To directly test if it is the AnxA2 or another factor secreted by the niche cells that influences FAP adipogenesis, a purified population of B6A/J FAPs ([…]) were treated with 100 nM AnxA2 and their spontaneous adipogenesis was quantified as the extent of oil red staining/20,000 FAPs. […]

A2-B6A/J mice = experiment: Notexin injury of A2-B6A/J TA muscle with or without recombinant AnxA2; type: in vivo, mouse; settings: 10 μg AnxA2 at injury site, 28 d after injury, vs notexin alone
Procedure: To test if this was also true in vivo, the AnxA2-naïve A2-B6A/J mice were used for receiving notexin to injure their muscle with or without the addition of 10 μg purified AnxA2 at the site of injury. […] This provides direct evidence supporting that extracellular AnxA2 is not only necessary, but also sufficient for driving FAP-mediated in vivo adipogenic conversion of the regenerating dysferlinopathic muscles.
Microscopy and Image Analysis. Microscopy was performed using an Olympus BX61 VS120-S5 Virtual Slide Scanning System with UPlanSApo 40×/0.95 objective, Olympus XM10 monochrome camera or Allied vision Pike F-505C color camera, and Olympus VS-ASW FL 2.7 imaging software. […] Perilipin-1 quantification was performed by thresholding the image to exclude non-specific staining and then calculating the area of each lipid deposit encircled by perlipin-1 (excluding those in the epi- or perimysium) using MetaMorph software (Molecular Devices). The total area encircled by perilipin-1 was calculated for all lipid deposits across the muscle and expressed relative to the total cross-sectional area. PDGFRα and AnxA2 positive area was calculated using CellSens software (Olympus) by thresholding to remove non-specific staining and calculating the total positive area (again, excluding any epi- or perimysial staining) relative to the entire muscle cross-section. […]

FAP = settings: stated without data; cited from earlier work

| Compound | increase in spontaneous adipogenic differentiation of dysferlinopathic FAPs (oil red staining/20,000 FAPs) (B6A/J FAPs) [fold] | accumulation of PDGFRα FAPs in TA after notexin injury (A2-B6A/J mice) | perilipin-1 labeled adipogenic deposits in TA after notexin injury (A2-B6A/J mice) | FAP adipogenesis (FAP) |
| --- | --- | --- | --- | --- |
| AnxA2: recombinant AnxA2 (RayBiotech, #230-30023), membrane repair protein Annexin A2 | > 2 | increased accumulation | increased accumulation |  |
| CC(CN1c2ccccc2Sc2ccccc21)N(C)C (stereo not shown) [promethazine] |  |  |  | inhibits FAP adipogenesis |
